According to PubChem BioAssay (NCI):
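48-hour exposure; five concentrations; linearly interpolated endpoints. Definition used: TGI = concentration required for complete inhibition of growth.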

How the values were obtained:
Assay in all cases: NCI-60 cell line screen, 48 h
[1] = system: M14 melanoma
[2] = system: OVCAR-5 ovarian
[3] = system: HL-60(TB) leukemia
[4] = system: OVCAR-8 ovarian
[5] = system: HOP-62 NSCLC
[6] = system: BT-549 breast
[7] = system: NCI-H522 lung
[8] = system: SR leukemia
[9] = system: SK-MEL-2 melanoma
[10] = system: A549 NSCLC
[11] = system: NCI-H226 lung
[12] = system: T-47D breast
[13] = system: HT29 colon
[14] = system: TK-10 renal
[15] = system: IGROV1 ovarian
[16] = system: CAKI-1 renal
[17] = system: EKVX NSCLC
[18] = system: HCT-15 colon
[19] = system: NCI-H23 lung
[20] = system: MDA-N
[21] = system: SK-OV-3 ovarian
[22] = system: HS 578T breast
[23] = system: UO-31 renal
[24] = system: RXF 393 renal
[25] = system: CCRF-CEM leukemia
[26] = system: SK-MEL-28 melanoma
[27] = system: UACC-257 melanoma
[28] = system: HCC-2998 colon
[29] = system: ACHN renal
[30] = system: U251 CNS
[31] = system: 786-0 renal
[32] = system: UACC-62 melanoma
[33] = system: DU-145 prostate
[34] = system: MALME-3M melanoma
[35] = system: SK-MEL-5 melanoma
[36] = system: NCI/ADR-RES ovarian
[37] = system: MOLT-4 leukemia
[38] = system: RPMI-8226 leukemia
[39] = system: OVCAR-4 ovarian
[40] = system: OVCAR-3 ovarian
[41] = system: MCF7 breast
[42] = system: SF-295 CNS
[43] = system: LOX IMVI melanoma
[44] = system: SN12C renal
[45] = system: COLO 205 colon
[46] = system: SF-539 CNS
[47] = system: K-562 leukemia
[48] = system: SW-620 colon
[49] = system: NCI-H460 lung
[50] = system: A498 renal
[51] = system: MDA-MB-435
[52] = system: MDA-MB-231 breast
[53] = system: SNB-19 CNS
[54] = system: HOP-92 NSCLC
[55] = system: HCT-116 colon
[56] = system: PC-3 prostate
[57] = system: KM12 colon
[58] = system: SF-268 CNS

N#Cc1nnc2c3c(-c4ccc(Cl)cc4)c(C#N)c(=O)[nH]c3nn2c1N
TGI [1]: 21.7 µM
TGI [2]: 65.4 µM
TGI [3]: > 100 µM
TGI [4]: 14 µM
TGI [5]: 21.8 µM
TGI [6]: 10.3 µM
TGI [7]: 6.11 µM
TGI [8]: 16.7 µM
TGI [9]: 26.9 µM
TGI [10]: > 59.9 µM
TGI [11]: 32.6 µM
TGI [12]: 3.97 µM
TGI [13]: 21.2 µM
TGI [14]: > 100 µM
TGI [15]: 9.65 µM
TGI [16]: 16.4 µM
TGI [17]: 30.9 µM
TGI [18]: 30.9 µM
TGI [19]: 24 µM
TGI [20]: 13.4 µM
TGI [21]: 18.2 µM
TGI [22]: 10.8 µM
TGI [23]: 20.7 µM
TGI [24]: 14.9 µM
TGI [25]: > 100 µM
TGI [26]: 44.5 µM
TGI [27]: 38.5 µM
TGI [28]: 12.7 µM
TGI [29]: 21.9 µM
TGI [30]: 10.7 µM
TGI [31]: 18.2 µM
TGI [32]: 4.44 µM
TGI [33]: 16.8 µM
TGI [34]: 31.6 µM
TGI [35]: 19.1 µM
TGI [36]: 54.9 µM
TGI [37]: 14.1 µM
TGI [38]: 51.1 µM
TGI [39]: 51 µM
TGI [40]: 8.08 µM
TGI [41]: 16.3 µM
TGI [42]: 23.9 µM
TGI [43]: 8.01 µM
TGI [44]: 6.37 µM
TGI [45]: 28.4 µM
TGI [46]: 12.5 µM
TGI [47]: > 41.6 µM
TGI [48]: 32 µM
TGI [49]: 52.6 µM
TGI [50]: 10.9 µM
TGI [51]: 26.8 µM
TGI [52]: 43.5 µM
TGI [53]: 19.5 µM
TGI [54]: 27.9 µM
TGI [55]: 15.9 µM
TGI [56]: 24.5 µM
TGI [57]: 28.5 µM
TGI [58]: 12.6 µM
